In US20250066389A1, “HETEROCYCLIC AMIDES AND METHODS OF USING THE SAME” (Rgenta Therapeutics, Inc., priority 2021, published 2025):

These compounds were tested on PMS1 (assay: Mini-Gene Reporter Assay—PMS1 (firefly luciferase mini-gene reporter transiently transfected into HEK293 cells)). Conditions: Homo sapiens; at 5 uM; mini-gene firefly luciferase reporter in HEK293 cells; read-out: PMS1 % Effect at 5 uM.
Assay type: cell-based
In short: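 HEK293 cells transiently transfected with a mini-gene construct (skipped exon with flanking introns/exons fused to firefly luciferase, pcDNA3.1) are incubated with compounds in duplicate. Exon inclusion raises luminescence; EC50 fitted by Levenberg-Marquardt; effect also scored at 5 μM.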
`CCOc1cc2nn(C)cc2cc1C(=O)Nc1cnc(NC[C@@H]2CC(F)(F)CN2)nc1` [Compound 443] showed an activation at 5 µM of less than 50%. `CCOc1cc2nn(C)cc2cc1C(=O)Nc1cnc(N2CC(N)C3(CC3)C2)nc1` (centres unmarked) [Compound 444] gave an activation at 5 µM of less than 50%. Compound `CCOc1cc2nn(C)cc2cc1C(=O)Nc1cnc(NCc2ccc(CN)cc2F)nc1` [Compound 445] has an activation at 5 µM of less than 50%. For `CCOc1cc2nn(C)cc2cc1C(=O)Nc1cnc(N(C)CC2CCCN2)nc1` (centres unmarked) [Compound 446], the activation at 5 µM was less than 50%. For `CCOc1cc2nn(C)cc2cc1C(=O)Nc1cnc(NCCC2(O)CNC2)nc1` [Compound 447], the activation at 5 µM was less than 50%. With `CCOc1cc2nn(C)cc2cc1C(=O)Nc1cnc(N(C)CCN2CCNCC2)nc1` [Compound 448] the activation at 5 µM was less than 50%. Compound `CCOc1cc2nn(C)cc2cc1C(=O)Nc1cnc(N(C)CC2CCNC2)nc1` (centres unmarked) [Compound 449] has an activation at 5 µM of less than 50%. Work on `CCOc1cc2nn(C)cc2cc1C(=O)Nc1cnc(NC[C@H]2CCCNC2)nc1` [Compound 450] yielded an activation at 5 µM of less than 50%. For `CCOc1cc2nn(C)cc2cc1C(=O)Nc1cnc(NCc2ccccc2N2CCNCC2)nc1` [Compound 451], the activation at 5 µM was less than 50%. For `CCOc1cc2nn(C)cc2cc1C(=O)Nc1cnc(N2CCC3(CC2)CNCCO3)nc1` [Compound 452], the activation at 5 µM was less than 50%. `CCOc1cc2nn(C)cc2cc1C(=O)Nc1cnc(N2CC(C)NCC2C)nc1` (centres unmarked) [Compound 453] gave an activation at 5 µM of 50 to 75%. Compound `CCOc1cc2nn(C)cc2cc1C(=O)Nc1cnc(N2CCC3(CCNCC3)C2)nc1` [Compound 454] has an activation at 5 µM of less than 50%. Compound `CCOc1cc2nn(C)cc2cc1C(=O)Nc1cnc(N2CCCC(CCN)C2)nc1` (centres unmarked) [Compound 455] has an activation at 5 µM of less than 50%. With `CCOc1cc2nn(C)cc2cc1C(=O)Nc1cnc(N2CCOC3(CCNCC3)C2)nc1` [Compound 459] the activation at 5 µM was less than 50%. `CCOc1cc2nn(C)cc2cc1C(=O)Nc1cnc(NCCC2CCCCN2)nc1` (centres unmarked) [Compound 460] was tested, and the activation at 5 µM was less than 50%. For `CCOc1cc2nn(C)cc2cc1C(=O)Nc1cnc(NCCC2CCCNC2)nc1` (centres unmarked) [Compound 462], the activation at 5 µM was less than 50%. For `CCOc1cc2nn(C)cc2cc1C(=O)Nc1cnc(N2CCC(NC)C2)nc1` (centres unmarked) [Compound 463], the activation at 5 µM was greater than 75%. Work on `CCOc1cc2nn(C)cc2cc1C(=O)Nc1cnc(N2C[C@H]3CNC[C@H]3C2)nc1` [Compound 464] yielded an activation at 5 µM of 50 to 75%. `CCOc1cc2nn(C)cc2cc1C(=O)Nc1cnc(NC[C@@H]2CCNC2)nc1` [Compound 465] showed an activation at 5 µM of less than 50%. With `CCOc1cc2nn(C)cc2cc1C(=O)Nc1cnc(N2CCCC(NC)C2)nc1` (centres unmarked) [Compound 466] the activation at 5 µM was less than 50%. `CCOc1cc2nn(C)cc2cc1C(=O)Nc1cnc(N2C[C@@H]3C[C@H]2CN3)nc1` [Compound 467] was tested, and the activation at 5 µM was less than 50%. `CCOc1cc2nn(C)cc2cc1C(=O)Nc1cnc(NCC2CNC2)nc1` [Compound 468] was tested, and the activation at 5 µM was less than 50%. `CCOc1cc2nn(C)cc2cc1C(=O)Nc1cnc(NCC2CCCCN2)nc1` (centres unmarked) [Compound 469] showed an activation at 5 µM of less than 50%. With `CCOc1cc2nn(C)cc2cc1C(=O)Nc1cnc(NC[C@@H]2CCCN2)nc1` [Compound 470] the activation at 5 µM was less than 50%. `CCOc1cc2nn(C)cc2cc1C(=O)Nc1cnc(NCCNC)nc1` [Compound 472] gave an activation at 5 µM of less than 50%. Compound `CCOc1cc2nn(C)cc2cc1C(=O)Nc1cnc(N2CCC(NC)CC2)nc1` [Compound 473] has an activation at 5 µM of less than 50%. For `CCOc1cc2nn(C)cc2cc1C(=O)Nc1cnc(NC[C@H]2CCCN2)nc1` [Compound 475], the activation at 5 µM was less than 50%. `CCOc1cc2nn(C)cc2cc1C(=O)Nc1cnc(N2CCNCC2)nc1` [Compound 477] gave an activation at 5 µM of 50 to 75%. For `CCOc1cc2nn(C)cc2cc1C(=O)Nc1cnc(N(C)C2CCNCC2)nc1` [Compound 478], the activation at 5 µM was 50 to 75%. `CCOc1cc2nn(C)cc2cc1C(=O)Nc1cnc(N2CC(N)C2)nc1` [Compound 479] showed an activation at 5 µM of less than 50%. With `CCOc1cc2nn(C)cc2cc1C(=O)Nc1cnc(N2CCN[C@@H](C)C2)nc1` [Compound 480] the activation at 5 µM was greater than 75%. `CCOc1cc2nn(C)cc2cc1C(=O)Nc1cnc(N2CCC(N)CC2)nc1` [Compound 481] gave an activation at 5 µM of less than 50%.
